According to US20140140929A1, “CHEMICALLY MODIFIED CELL-PENETRATING PEPTIDES FOR IMPROVED DELIVERY OF GENE MODULATING COMPOUNDS” (priority 2008, published 2014):

Experiments:
[1] = tested on: luciferase in BHK21 cells; experiment: siRNA treatment, luciferase down-regulation in luciferase-stable BHK21 cells; format: cell-based
Procedure: Phosphorothioate 2′O methyl RNA (SCO) or anti-miR21 2′OMe RNA (with 33% LNA substitution) was mixed with CPPs at different molar ratios (1:0-1:20) in MQ water in 1/10th of the final treatment volume (i.e 50 μl). Complexes were formed for 30 min in RT and meanwhile media was replaced in 24-well plates to fresh serum free DMEM (450 μl). Thereafter, complexes were added to each well. The final concentration of SCO was kept constant at 200 nM and peptide concentration was varied or complexes were formed at a given molar ratio using 400 nM SCO and then serial diluted in water. Complexes were prepared according to manufacturers protocol when using the commercial transfection reagent Lipofectamine 2000 (Promega, USA). […] Lower concentrations were generated by doing serial dilutions.
siRNA transfections: Different luciferase-stable cell lines including HeLa, BHK21, and U2OS cells were seeded as in the other experiments. Cells were treated for 4 h in serum-free or full growth media after which 1 ml of full growth media was added to the wells. Cells were lysed and measured for luminescence 20 h later as described previously. The luminescence was normalized to protein content in each well and the RLU/mg value from untreated cells were considered as 100%. Different treatments are then presented as % of untreated cells.

[2] = tested on: EGFP in CHO cells; experiment: siRNA treatment, EGFP down-regulation in EGFP stable CHO cells (FACS, confocal microscopy); format: cell-based
Procedure: A 24-well plate with EGFP-stable CHO cells were seeded one day prior transfection. On the day of transfection, transfect the cells with PF6-siRNA complexes, molar ratios between siRNA:PF6 a) for serum free media incubations: 1:20 and 1:40 with siRNA concentrations 50 nM, 25 nM and 12.5 nM; nd 1:80 with siRNA concentrations 20 nM, 10 nM and 5 nM. b) for full media incubations: 1:20 and 1:40 with siRNA concentrations 100 nM, 50 nM and 25 nM. For control experiments the cells were transfected with EGFP siRNA using Lipofectamine (100 nM siRNA and 2.8 ul of Lipofectamine), or mock transfected without complexes or only with siRNA (to get native EGFP levels). The incubation vol. during transfections was 500 ul. Incubate the cells with the complexes in serum free media or in full media, as required, for 4 hours. Then add 1 ml of full media into each well and let the cells grow for 24 (or, alternatively, for 48 hours).
On the day of measurement, wash the cells with PBS, and detach from the wells by trypsination. Use 125 ul trypsin solution. After the cells have detached, add 500 ul full media and transfer the cells into eppendorf tubes. Centrifuge at 500×g for 10 min, remove supernatant and resuspend in 500 ul of PBS supplemented with 2% FBS (this FBS is quite important, keeps the cells in better shape when the tubes are waiting to be analyzed). Transfer the cell suspensions info FACS tubes and put them on ice. Analyze as soon as possible. Measure the cell suspensions in FACS. Gate the living cell population on FSC-SSC plot. On the FSC/FITC-A or SSC/FITC-A plot find the gates for moctransfected cells (gate/cloud for cells with native EGFP levels). Run the samples using the same gates. All the cells falling out from the cloud with native EGFP-levels and having lower EGFP levels will be counted as cells where the siRNA transfection has taken place. Present the results as % of cells transfected with siRNA. Alternatively, choose the gates in a similar way based on mock-transfected cells using FITC-A histogram graph.

[3] = tested on: HPRT1 in SHSY5Y cells; experiment: siRNA treatment, HPRT1 knock-down in SHSY5Y neuroblastoma cells; format: cell-based, human
Procedure: HPRT1 knock-down in human SHSY5Y neuroblastoma cells following 20 h of siRNA treatment. PF6/siRNA particles where formulated at two different molar ratios and serial diluted to give a final treatment concentration of 100, 50 and 25 nM siRNA. Treatments were performed in full growth media and the RNAi response was compared to that induced by 100 nM siRNA complexed with Lipofectamine 2000.
(§1) Phosphorothioate 2′O methyl RNA (SCO) or anti-miR21 2′OMe RNA (with 33% LNA substitution) was mixed with CPPs at different molar ratios (1:0-1:20) in MQ water in 1/10th of the final treatment volume (i.e 50 μl). Complexes were formed for 30 min in RT and meanwhile media was replaced in 24-well plates to fresh serum free DMEM (450 μl). Thereafter, complexes were added to each well. The final concentration of SCO was kept constant at 200 nM and peptide concentration was varied or complexes were formed at a given molar ratio using 400 nM SCO and then serial diluted in water. Complexes were prepared according to manufacturers protocol when using the commercial transfection reagent Lipofectamine 2000 (Promega, USA). PepFect/siRNA complexes were essentially formed in a similar manner but using 100 nM siRNA as starting concentrations and molar ratios ranging from 20-40. Lower concentrations were generated by doing serial dilutions.

[4] = tested on: HPRT1 in B16 cells; experiment: siRNA treatment, HPRT1 in B16 cells; format: cell-based; settings: B16, target HPRT1
Procedure: as §1

[5] = tested on: HPRT1 in primary glia; experiment: siRNA treatment, HPRT1 in primary mixed glial cell culture; format: cell-based, rat
Procedure: RNAi in rat primary mixed glial cell culture following treatment with siRNA targeting HPRT1.
as §1

[6] = siRNA concentration, Bhk21, target Luciferase
[7] = siRNA concentration, CHO, target EGFP
[8] = siRNA concentration, SHSY5Y, target HPRT1

**Q.** What does the source list for “Stearyl-AGYLLGK[KK2sa4qn4]INLKALAALAKKIL-NH2 [Pepfect 6]”?
**A.** down-regulation of luciferase ([1]; 50 nM siRNA, MR 10, 24 h treatment): more than 80%; Compared to Lipofectamine ([1]; Bhk21, target Luciferase): better; luciferase expression, dose-response in words ([1]; full growth media, 24 h after transfection): dose-dependent decrease in luciferase expression; 70% inhibition [1, 6]: 2.5 to 5 nM; 90% inhibition [1, 6]: 5 to 20 nM; efficacy to convey siRNA targeting luciferase, PF6 versus PF5 ([1]; two molar ratios, low siRNA concentration): superior to PF5; cells with lower expression of EGFP ([2]; 25 nM siRNA, molar ratio 40, FACS): 90-95%; RNAi by confocal microscopy ([2]; 50 nM siRNA, 48 h, serum free media and complete growth media): complete RNAi; cells with negligible EGFP expression ([2]; 100 nM siRNA, full serum media, 48 h after treatment, FACS): approximately 98%; Compared to Lipofectamine ([2]; CHO, target EGFP): better; RNAi after 24 h, result in words ([2]; independent on siRNA concentration, serum or serum free media, flow cytometry): almost complete RNAi; 70% inhibition [2, 7]: 10 nM; 90% inhibition [2, 7]: 20 to 25 nM; persistence of RNAi response ([2]; single siRNA treatment, optimal conditions): 4 to 5 days; RNAi response compared to Lipofectamine 2000 using 100 nM siRNA ([3]; MR40, 25 nM siRNA, full growth media, 20 h): significantly stronger; Compared to Lipofectamine ([3]; SHSY5Y, target HPRT1): superior; 70% inhibition [3, 8]: 10 to 25 nM; 90% inhibition [3, 8]: 50 to 100 nM; Compared to Lipofectamine [4]: better; 90% inhibition ([4]; siRNA concentration): 25 to 50 nM; Compared to Lipofectamine ([5]; Primary glia, target HPRT1): superior; siRNA-mediated gene silencing compared with Lipofectamine 2000 ([5]; in serum and under serum free conditions): significantly more potent than Lipofectamine 2000; 90% inhibition ([5]; siRNA concentration, Primary glia, target HPRT1): 25 to 50 nM
